According to article doi:10.1101/2023.11.24.568596v1 (biorxiv, 2023):
Each block holds one compound with its values, some of them ahead of it.

How the values were obtained:
Conditions in all cases: binder
AAK1 = AAK1 (Homo sapiens, UniProt Q2M2I8)
AKT3 = AKT3 (Homo sapiens, UniProt Q9Y243)
BRD4 = BRD4 (Homo sapiens, UniProt O60885)
CLK1 = CLK1 (Homo sapiens, UniProt P49759)
CLK3 = CLK3 (Homo sapiens, UniProt P49761)
CaMK1g = CaMK1g (Homo sapiens, UniProt Q96NX5)
CaMK2d = CaMK2d (Homo sapiens, UniProt Q13557)
Sequence of CaMK2d (Q13557 whole entry): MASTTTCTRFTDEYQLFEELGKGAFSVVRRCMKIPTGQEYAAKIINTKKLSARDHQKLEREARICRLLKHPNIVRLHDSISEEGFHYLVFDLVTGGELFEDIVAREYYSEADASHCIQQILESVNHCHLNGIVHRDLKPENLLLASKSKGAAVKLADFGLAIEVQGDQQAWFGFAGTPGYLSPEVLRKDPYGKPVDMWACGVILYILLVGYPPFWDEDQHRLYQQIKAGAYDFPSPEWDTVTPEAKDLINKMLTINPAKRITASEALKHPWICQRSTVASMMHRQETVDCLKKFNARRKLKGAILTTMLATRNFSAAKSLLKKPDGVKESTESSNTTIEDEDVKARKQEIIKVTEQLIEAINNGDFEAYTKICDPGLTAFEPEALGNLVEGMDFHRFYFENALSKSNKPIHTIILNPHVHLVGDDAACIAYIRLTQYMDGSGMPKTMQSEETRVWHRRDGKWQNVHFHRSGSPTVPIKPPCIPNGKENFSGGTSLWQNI

DAPK3 = DAPK3 (Homo sapiens, UniProt O43293)
Sequence of DAPK3 (O43293 whole entry): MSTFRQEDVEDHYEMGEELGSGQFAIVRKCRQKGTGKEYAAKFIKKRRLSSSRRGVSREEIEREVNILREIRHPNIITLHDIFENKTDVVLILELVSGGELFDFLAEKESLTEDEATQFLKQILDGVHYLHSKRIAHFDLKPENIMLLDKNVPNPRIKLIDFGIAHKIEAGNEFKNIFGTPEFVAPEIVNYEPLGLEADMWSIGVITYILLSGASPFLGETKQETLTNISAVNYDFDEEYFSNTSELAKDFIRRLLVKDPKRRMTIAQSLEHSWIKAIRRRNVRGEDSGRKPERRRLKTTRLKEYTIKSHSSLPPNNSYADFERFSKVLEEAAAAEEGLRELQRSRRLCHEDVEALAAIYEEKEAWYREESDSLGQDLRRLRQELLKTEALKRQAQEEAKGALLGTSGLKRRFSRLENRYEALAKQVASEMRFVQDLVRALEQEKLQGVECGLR

DYRK1A = DYRK1A (Homo sapiens, UniProt Q13627)
EphB3 = biological target: T1, EphB3 (Homo sapiens, UniProt P54753)
T1 sequence (P54753 1-998): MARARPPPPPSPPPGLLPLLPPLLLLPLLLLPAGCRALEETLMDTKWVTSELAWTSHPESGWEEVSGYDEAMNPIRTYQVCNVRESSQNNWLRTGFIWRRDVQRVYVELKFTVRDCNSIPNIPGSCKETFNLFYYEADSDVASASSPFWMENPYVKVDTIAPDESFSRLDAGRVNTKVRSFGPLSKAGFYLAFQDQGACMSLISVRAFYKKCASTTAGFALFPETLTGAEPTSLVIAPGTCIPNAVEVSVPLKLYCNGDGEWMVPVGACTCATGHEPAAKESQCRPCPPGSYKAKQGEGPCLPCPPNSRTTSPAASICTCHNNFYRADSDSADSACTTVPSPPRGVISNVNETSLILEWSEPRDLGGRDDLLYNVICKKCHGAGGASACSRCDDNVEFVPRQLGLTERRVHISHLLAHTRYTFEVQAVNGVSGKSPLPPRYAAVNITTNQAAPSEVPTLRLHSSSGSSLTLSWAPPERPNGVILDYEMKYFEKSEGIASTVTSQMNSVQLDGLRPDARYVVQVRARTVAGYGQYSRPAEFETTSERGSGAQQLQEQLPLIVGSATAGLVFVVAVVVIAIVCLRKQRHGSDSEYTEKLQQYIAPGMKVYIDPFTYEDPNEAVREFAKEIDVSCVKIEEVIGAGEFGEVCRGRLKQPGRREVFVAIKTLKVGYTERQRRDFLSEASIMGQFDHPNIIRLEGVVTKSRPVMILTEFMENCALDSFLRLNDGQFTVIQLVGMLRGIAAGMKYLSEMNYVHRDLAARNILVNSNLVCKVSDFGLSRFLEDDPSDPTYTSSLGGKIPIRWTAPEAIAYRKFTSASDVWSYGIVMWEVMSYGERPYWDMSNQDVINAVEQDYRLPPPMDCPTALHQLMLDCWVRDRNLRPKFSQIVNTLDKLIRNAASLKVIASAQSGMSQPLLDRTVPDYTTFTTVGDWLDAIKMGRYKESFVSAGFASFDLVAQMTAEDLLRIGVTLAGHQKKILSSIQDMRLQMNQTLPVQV

FGFR1 = FGFR1 (Homo sapiens, UniProt P11362)
Sequence of FGFR1 (P11362 whole entry): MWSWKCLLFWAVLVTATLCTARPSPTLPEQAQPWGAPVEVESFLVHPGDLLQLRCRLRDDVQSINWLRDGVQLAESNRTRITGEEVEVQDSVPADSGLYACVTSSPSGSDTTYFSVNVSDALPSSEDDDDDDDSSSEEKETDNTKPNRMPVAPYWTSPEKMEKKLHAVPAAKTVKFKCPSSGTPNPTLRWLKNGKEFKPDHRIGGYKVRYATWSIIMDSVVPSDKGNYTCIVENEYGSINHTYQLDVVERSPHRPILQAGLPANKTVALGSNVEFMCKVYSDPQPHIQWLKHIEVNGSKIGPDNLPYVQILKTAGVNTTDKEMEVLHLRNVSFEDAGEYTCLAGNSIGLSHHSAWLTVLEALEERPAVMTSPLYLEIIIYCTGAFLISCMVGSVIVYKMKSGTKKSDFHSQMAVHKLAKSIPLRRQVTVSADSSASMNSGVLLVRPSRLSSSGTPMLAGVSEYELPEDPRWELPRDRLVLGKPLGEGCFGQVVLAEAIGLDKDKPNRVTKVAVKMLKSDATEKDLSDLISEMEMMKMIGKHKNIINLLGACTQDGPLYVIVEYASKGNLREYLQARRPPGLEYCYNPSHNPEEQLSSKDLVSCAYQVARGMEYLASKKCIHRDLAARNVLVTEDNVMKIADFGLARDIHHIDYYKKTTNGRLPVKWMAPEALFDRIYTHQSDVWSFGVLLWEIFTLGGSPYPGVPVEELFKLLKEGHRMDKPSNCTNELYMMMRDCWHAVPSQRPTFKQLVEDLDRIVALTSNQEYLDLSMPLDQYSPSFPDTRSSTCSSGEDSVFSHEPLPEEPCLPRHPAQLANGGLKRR

HIPK2 = HIPK2 (Homo sapiens, UniProt Q9H2X6)
JNK1 = JNK1 (Homo sapiens, UniProt P45983)
MAP2K4 = biological target: T2, MAP2K4 (Homo sapiens, UniProt P45985)
T2 sequence (P45985 1-399): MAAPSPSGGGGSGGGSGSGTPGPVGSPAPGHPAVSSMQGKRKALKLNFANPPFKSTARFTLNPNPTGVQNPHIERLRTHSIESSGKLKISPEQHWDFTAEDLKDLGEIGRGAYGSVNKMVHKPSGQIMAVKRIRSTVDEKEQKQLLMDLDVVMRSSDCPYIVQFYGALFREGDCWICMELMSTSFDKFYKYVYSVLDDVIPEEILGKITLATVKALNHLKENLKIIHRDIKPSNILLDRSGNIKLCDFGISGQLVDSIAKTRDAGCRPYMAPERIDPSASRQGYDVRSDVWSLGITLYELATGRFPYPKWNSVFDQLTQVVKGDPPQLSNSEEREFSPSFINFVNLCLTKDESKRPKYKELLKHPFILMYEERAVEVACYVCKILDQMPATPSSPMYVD

MRCKa = MRCKa (Homo sapiens, UniProt Q5VT25)
Sequence of MRCKa (Q5VT25 whole entry): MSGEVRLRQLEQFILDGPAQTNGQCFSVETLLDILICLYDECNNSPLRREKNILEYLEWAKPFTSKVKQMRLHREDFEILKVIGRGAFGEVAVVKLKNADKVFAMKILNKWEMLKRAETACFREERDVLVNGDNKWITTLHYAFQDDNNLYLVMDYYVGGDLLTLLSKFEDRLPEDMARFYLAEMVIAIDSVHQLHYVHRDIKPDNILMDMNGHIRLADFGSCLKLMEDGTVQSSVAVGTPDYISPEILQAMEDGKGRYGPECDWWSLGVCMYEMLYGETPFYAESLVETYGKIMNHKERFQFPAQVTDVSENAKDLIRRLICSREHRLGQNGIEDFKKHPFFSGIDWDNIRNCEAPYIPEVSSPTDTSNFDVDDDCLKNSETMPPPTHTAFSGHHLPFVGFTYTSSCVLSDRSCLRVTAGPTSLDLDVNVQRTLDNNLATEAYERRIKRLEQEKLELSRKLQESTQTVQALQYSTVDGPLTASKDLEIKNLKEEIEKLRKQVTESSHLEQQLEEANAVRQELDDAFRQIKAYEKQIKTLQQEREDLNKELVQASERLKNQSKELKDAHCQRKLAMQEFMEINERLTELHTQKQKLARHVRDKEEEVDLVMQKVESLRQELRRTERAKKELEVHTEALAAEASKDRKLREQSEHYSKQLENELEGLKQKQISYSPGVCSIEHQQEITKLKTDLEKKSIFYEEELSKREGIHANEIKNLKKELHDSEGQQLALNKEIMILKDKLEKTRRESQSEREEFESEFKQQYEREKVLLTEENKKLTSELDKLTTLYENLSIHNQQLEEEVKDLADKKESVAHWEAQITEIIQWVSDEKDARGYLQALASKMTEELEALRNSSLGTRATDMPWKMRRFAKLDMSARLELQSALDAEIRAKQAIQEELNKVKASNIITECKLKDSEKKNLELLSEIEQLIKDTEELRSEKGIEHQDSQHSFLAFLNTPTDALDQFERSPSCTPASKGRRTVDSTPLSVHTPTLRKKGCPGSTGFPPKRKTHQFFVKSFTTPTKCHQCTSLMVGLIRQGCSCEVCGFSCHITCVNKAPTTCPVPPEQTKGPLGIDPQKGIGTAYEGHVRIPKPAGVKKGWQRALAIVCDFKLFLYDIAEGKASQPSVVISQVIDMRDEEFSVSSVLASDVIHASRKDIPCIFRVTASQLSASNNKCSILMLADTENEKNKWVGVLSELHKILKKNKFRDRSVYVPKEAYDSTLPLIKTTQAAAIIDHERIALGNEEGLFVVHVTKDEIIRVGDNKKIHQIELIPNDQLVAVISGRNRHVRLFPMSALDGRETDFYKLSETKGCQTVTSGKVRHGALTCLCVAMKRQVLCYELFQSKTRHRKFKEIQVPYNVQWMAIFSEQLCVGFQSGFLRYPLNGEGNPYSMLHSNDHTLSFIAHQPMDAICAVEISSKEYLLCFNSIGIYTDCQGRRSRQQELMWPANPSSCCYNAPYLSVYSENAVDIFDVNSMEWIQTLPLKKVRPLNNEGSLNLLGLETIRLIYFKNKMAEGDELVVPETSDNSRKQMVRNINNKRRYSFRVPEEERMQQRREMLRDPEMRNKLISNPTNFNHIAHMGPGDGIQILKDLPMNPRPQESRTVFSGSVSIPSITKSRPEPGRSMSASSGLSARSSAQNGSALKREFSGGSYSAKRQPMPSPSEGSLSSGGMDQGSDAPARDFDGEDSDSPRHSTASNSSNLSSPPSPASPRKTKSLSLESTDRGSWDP

PAK1 = PAK1 (Homo sapiens, UniProt Q13153)
PIM3 = PIM3 (Homo sapiens, UniProt Q86V86)

Sequence of AKT3 (Q9Y243 whole entry): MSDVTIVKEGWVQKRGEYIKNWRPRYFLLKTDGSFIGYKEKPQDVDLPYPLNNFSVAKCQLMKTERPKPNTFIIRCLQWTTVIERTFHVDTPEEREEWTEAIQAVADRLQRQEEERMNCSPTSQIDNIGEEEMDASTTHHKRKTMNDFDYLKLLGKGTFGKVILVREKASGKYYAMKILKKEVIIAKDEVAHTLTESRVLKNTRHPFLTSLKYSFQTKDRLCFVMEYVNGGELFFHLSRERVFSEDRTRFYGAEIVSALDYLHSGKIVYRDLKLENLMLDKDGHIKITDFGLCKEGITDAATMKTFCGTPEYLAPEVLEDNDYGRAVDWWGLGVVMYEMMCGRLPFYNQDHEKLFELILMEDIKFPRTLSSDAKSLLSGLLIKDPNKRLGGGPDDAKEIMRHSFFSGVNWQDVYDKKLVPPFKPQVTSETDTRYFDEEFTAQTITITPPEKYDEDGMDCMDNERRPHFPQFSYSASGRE
Sequence of CLK1 (P49759 whole entry): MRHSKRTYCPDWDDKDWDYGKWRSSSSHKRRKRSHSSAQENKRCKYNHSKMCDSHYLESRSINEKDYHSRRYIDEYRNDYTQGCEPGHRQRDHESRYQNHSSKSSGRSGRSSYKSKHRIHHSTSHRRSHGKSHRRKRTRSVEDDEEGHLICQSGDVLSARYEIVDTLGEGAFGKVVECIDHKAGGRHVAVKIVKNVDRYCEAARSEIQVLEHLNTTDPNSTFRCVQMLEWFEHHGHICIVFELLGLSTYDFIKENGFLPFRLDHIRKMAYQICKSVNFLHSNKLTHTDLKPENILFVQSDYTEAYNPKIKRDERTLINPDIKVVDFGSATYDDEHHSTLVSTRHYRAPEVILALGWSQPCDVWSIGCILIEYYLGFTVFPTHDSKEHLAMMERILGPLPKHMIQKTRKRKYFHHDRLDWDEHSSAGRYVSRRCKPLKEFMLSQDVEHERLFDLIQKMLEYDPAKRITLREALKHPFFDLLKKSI
Sequence of CaMK1g (Q96NX5 whole entry): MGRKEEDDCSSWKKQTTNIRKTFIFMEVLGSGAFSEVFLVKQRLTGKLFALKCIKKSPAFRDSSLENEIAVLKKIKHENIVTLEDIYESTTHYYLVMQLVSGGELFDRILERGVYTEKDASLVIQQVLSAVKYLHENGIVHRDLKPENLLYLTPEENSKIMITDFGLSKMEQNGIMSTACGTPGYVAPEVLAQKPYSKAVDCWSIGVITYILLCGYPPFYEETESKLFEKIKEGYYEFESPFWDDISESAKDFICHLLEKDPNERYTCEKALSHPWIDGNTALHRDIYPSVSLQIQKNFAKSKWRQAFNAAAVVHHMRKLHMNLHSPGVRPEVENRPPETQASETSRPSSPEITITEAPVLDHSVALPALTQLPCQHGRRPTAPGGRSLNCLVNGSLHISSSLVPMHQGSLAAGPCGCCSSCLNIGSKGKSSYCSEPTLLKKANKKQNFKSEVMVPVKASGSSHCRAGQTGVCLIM

ΔTm 28 (AAK1): -0.1 °C | ΔTm 28 (AKT3): 0.3 °C | ΔTm 28 (BRD4): -3.7 °C | ΔTm 28 (CLK1): 0.6 °C | ΔTm 28 (CLK3): 0.0 °C | ΔTm 28 (CaMK1g): 5.7 °C | ΔTm 28 (CaMK2d): -0.4 °C | ΔTm 28 (DAPK3): 1.0 °C | ΔTm 28 (DYRK1A): 0.2 °C | ΔTm 28 (EphB3): 4.1 °C | ΔTm 28 (FGFR1): 1.1 °C | ΔTm 28 (HIPK2): -0.5 °C | ΔTm 28 (JNK1): 2.8 °C | ΔTm 28 (MAP2K4): 11.0 °C | ΔTm 28 (MRCKa): -1.0 °C | ΔTm 28 (PAK1): 6.0 °C | ΔTm 28 (PIM3): 0.5 °C
SMILES: Cc1cccc(-c2ccc(-c3cc4cnc(Nc5cc(C(F)(F)F)ccc5C)nc4n(CCCCN)c3=O)c(Cl)c2)n1 [compound 28, 8-(4-Aminobutyl)-6-(2-chloro-4-(6-methylpyridin-2-yl)phenyl)-2-((2-methyl-5-(trifluoromethyl)phenyl)amino)pyrido[2,3-d]pyrimidin-7(8H)-one]

ΔTm MR30 (27) (AAK1): -0.5 °C | ΔTm MR30 (27) (AKT3): 0.9 °C | ΔTm MR30 (27) (BRD4): -3.9 °C | ΔTm MR30 (27) (CLK1): -0.7 °C | ΔTm MR30 (27) (CLK3): -0.3 °C | ΔTm MR30 (27) (CaMK1g): 3.6 °C | ΔTm MR30 (27) (CaMK2d): -0.5 °C | ΔTm MR30 (27) (DAPK3): 0.6 °C | ΔTm MR30 (27) (DYRK1A): -1.2 °C | ΔTm MR30 (27) (EphB3): 2.3 °C | ΔTm MR30 (27) (FGFR1): 0.2 °C | ΔTm MR30 (27) (HIPK2): 0.0 °C | ΔTm MR30 (27) (JNK1): 0.4 °C | ΔTm MR30 (27) (MAP2K4): 5.2 °C | ΔTm MR30 (27) (MRCKa): -0.2 °C | ΔTm MR30 (27) (PAK1): 4.6 °C | ΔTm MR30 (27) (PIM3): -2.7 °C
SMILES: Cc1cccc(-c2ccc(-c3cc4cnc(NCCCN5CCCC5=O)nc4n(CCCCN)c3=O)c(Cl)c2)n1 [compound 27, MR30]

ΔTm 30 (AAK1): 4.1 °C | ΔTm 30 (AKT3): 4.3 °C | ΔTm 30 (BRD4): -2.4 °C | ΔTm 30 (CLK1): -0.2 °C | ΔTm 30 (CLK3): -0.2 °C | ΔTm 30 (CaMK1g): 7.5 °C | ΔTm 30 (CaMK2d): 0.1 °C | ΔTm 30 (DAPK3): 2.9 °C | ΔTm 30 (DYRK1A): -1.8 °C | ΔTm 30 (EphB3): 6.9 °C | ΔTm 30 (FGFR1): 1.0 °C | ΔTm 30 (HIPK2): 2.6 °C | ΔTm 30 (JNK1): 2.8 °C | ΔTm 30 (MAP2K4): 9.7 °C | ΔTm 30 (MRCKa): 4.4 °C | ΔTm 30 (PAK1): 10.7 °C | ΔTm 30 (PIM3): -0.8 °C
SMILES: Cc1cccc(-c2ccc(-c3cc4cnc(Nc5ccc(CCCO)cc5)nc4n(CCCCN)c3=O)c(Cl)c2)n1 [compound 30, 8-(4-Aminobutyl)-6-(2-chloro-4-(6-methylpyridin-2-yl)phenyl)-2-((4-(3-hydroxypropyl)phenyl)amino)pyrido[2,3-d]pyrimidin-7(8H)-one]

ΔTm 31 (AAK1): 4.0 °C | ΔTm 31 (AKT3): 4.2 °C | ΔTm 31 (BRD4): -1.6 °C | ΔTm 31 (CLK1): 0.8 °C | ΔTm 31 (CLK3): -0.5 °C | ΔTm 31 (CaMK1g): 5.5 °C | ΔTm 31 (CaMK2d): -0.1 °C | ΔTm 31 (DAPK3): 2.0 °C | ΔTm 31 (DYRK1A): -1.0 °C | ΔTm 31 (EphB3): 5.3 °C | ΔTm 31 (FGFR1): 1.5 °C | ΔTm 31 (HIPK2): 2.6 °C | ΔTm 31 (JNK1): 2.7 °C | ΔTm 31 (MAP2K4): 10.8 °C | ΔTm 31 (MRCKa): 3.3 °C | ΔTm 31 (PAK1): 10.6 °C | ΔTm 31 (PIM3): 4.5 °C
SMILES: Cc1cccc(-c2ccc(-c3cc4cnc(Nc5ccc(O)cc5)nc4n(CCCCN)c3=O)c(Cl)c2)n1 [compound 31, 8-(4-Aminobutyl)-6-(2-chloro-4-(6-methylpyridin-2-yl)phenyl)-2-((4-hydroxyphenyl)amino) pyrido[2,3-d]pyrimidin-7(8H)-one]

ΔTm 32 (AAK1): 4.0 °C | ΔTm 32 (AKT3): 3.6 °C | ΔTm 32 (BRD4): -2.7 °C | ΔTm 32 (CLK1): 0.7 °C | ΔTm 32 (CLK3): 0.1 °C | ΔTm 32 (CaMK1g): 6.4 °C | ΔTm 32 (CaMK2d): 0.0 °C | ΔTm 32 (DAPK3): 2.6 °C | ΔTm 32 (DYRK1A): -0.4 °C | ΔTm 32 (EphB3): 8.5 °C | ΔTm 32 (FGFR1): 2.0 °C | ΔTm 32 (HIPK2): 2.6 °C | ΔTm 32 (JNK1): 1.9 °C | ΔTm 32 (MAP2K4): 10.8 °C | ΔTm 32 (MRCKa): 4.0 °C | ΔTm 32 (PAK1): 10.4 °C | ΔTm 32 (PIM3): 1.5 °C
SMILES: Cc1cccc(-c2ccc(-c3cc4cnc(Nc5ccc(C)c(O)c5)nc4n(CCCCN)c3=O)c(Cl)c2)n1 [compound 32, 8-(4-Aminobutyl)-6-(2-chloro-4-(6-methylpyridin-2-yl)phenyl)-2-((3-hydroxy-4-methylphenyl)amino)pyrido[2,3-d]pyrimidin-7(8H)-one]

ΔTm 29 (AAK1): 0.0 °C | ΔTm 29 (AKT3): 0.8 °C | ΔTm 29 (BRD4): -2.2 °C | ΔTm 29 (CLK1): -0.3 °C | ΔTm 29 (CLK3): 0.0 °C | ΔTm 29 (CaMK1g): 5.0 °C | ΔTm 29 (CaMK2d): -0.1 °C | ΔTm 29 (DAPK3): 0.0 °C | ΔTm 29 (DYRK1A): -0.3 °C | ΔTm 29 (EphB3): 2.3 °C | ΔTm 29 (FGFR1): 0.7 °C | ΔTm 29 (HIPK2): 0.6 °C | ΔTm 29 (JNK1): 0.7 °C | ΔTm 29 (MAP2K4): 3.5 °C | ΔTm 29 (MRCKa): -0.3 °C | ΔTm 29 (PAK1): 7.1 °C | ΔTm 29 (PIM3): 0.0 °C
SMILES: Cc1cccc(-c2ccc(-c3cc4cnc(NCCCN5CCNCC5)nc4n(CCCCN)c3=O)c(Cl)c2)n1 [compound 29, 8-(4-Aminobutyl)-6-(2-chloro-4-(6-methylpyridin-2-yl)phenyl)-2-((3-(piperazin-1-yl)propyl)amino)pyrido[2,3-d]pyrimidin-7(8H)-one]
